Calls of active or inactive are those of the source. The rule behind the calls is not given here.
Tested on: GENE-TOX genotoxicity assays, various organisms and cells
Experiment: GENE-TOX mutagenicity studies
Details: for call: Assay Type: In vivo carcinogenicity studies
[1] = Species/Cell Type: Human, Assay Type: Sister-chromatid exchange (SCE) in vitro, Assay Code: SC1+, Evaluation Type: Evaluation B (Post-1980)
[2] = Species/Cell Type: Mouse, Sex: Female, Assay Type: Spot test, gene mutation, Assay Code: MSTT, Evaluation Type: Evaluation A (Pre-1980)
[3] = Species/Cell Type: Mouse, Sex: Male, Assay Type: Sperm morphology, Assay Code: SPI-, Evaluation Type: Evaluation A (Pre-1980)
[4] = Species/Cell Type: Nonhuman, Assay Type: Sister-chromatid exchange (SCE) in vivo, Assay Code: SC3T, Evaluation Type: Evaluation B (Post-1980)
[5] = Species/Cell Type: Rodents, Sex: Male, Assay Type: Dominant lethal test, Assay Code: DLT-, Evaluation Type: Evaluation A (Pre-1980)
[6] = Species/Cell Type: Drosophila melanogaster, Assay Type: Sex-linked recessive lethal gene mutation, Assay Code: SRL+, Evaluation Type: Evaluation A (Pre-1980)
[7] = Species/Cell Type: Neurospora crassa, Assay Type: Reverse gene mutation, Assay Code: NER+, Evaluation Type: Evaluation A (Pre-1980)
[8] = Species/Cell Type: Nonhuman, Assay Code: CCG+, Evaluation Type: Evaluation A (Pre-1980)
[9] = Species/Cell Type: Mammalian polychromatic erythrocytes, Assay Type: Micronucleus test, chromosome aberrations, Assay Code: MNTT, Evaluation Type: Evaluation B (Post-1980)

Q: For NNC(=O)c1ccncc1, which mutagenic call [1] is on record?
A: The mutagenic call was “active; positive”.

Q: And the mutagenic call (Species/Cell Type: Mammalian germ cells, Sex: Male, Assay Type: Chromosome aberrations in vivo, Assay Code: CY9T, Evaluation Type: Evaluation A (Pre-1980))?
A: The mutagenic call was “no conclusion”.

Q: And the mutagenic call (Species/Cell Type: Mammalian oocytes or early embryo, Assay Type: Chromosome aberrations in vivo, Assay Code: CYO-, Evaluation Type: Evaluation A (Pre-1980))?
A: The mutagenic call was “inactive; negative”.

Q: And the mutagenic call [2]?
A: The mutagenic call was “no conclusion”.

Q: And the mutagenic call [3]?
A: Its mutagenic call is “inactive; negative”.

Q: What about the call (Species/Cell Type: Nonhuman, Assay Code: CCG+L, Evaluation Type: Evaluation A (Pre-1980)) of the same compound?
A: Its call is “active; positive”.

Q: What about the mutagenic call (Species/Cell Type: Nonhuman, Assay Type: Sister-chromatid exchange (SCE) in vitro, Assay Code: SC2+D, Dose Response: With dose response, Evaluation Type: Evaluation B (Post-1980)) of the same compound?
A: The mutagenic call was “active; positive”.

Q: What about the mutagenic call [4] of the same compound?
A: Its mutagenic call is “no conclusion”.

Q: What about the mutagenic call (Species/Cell Type: Rabbit, Sex: Male, Assay Type: Sperm morphology, Assay Code: SPR-, Evaluation Type: Evaluation A (Pre-1980)) of the same compound?
A: The mutagenic call was “inactive; negative”.

Q: And the mutagenic call [5]?
A: The mutagenic call was “inactive; negative”.

Q: What about the mutagenic call (Species/Cell Type: Salmonella typhimurium, Assay Type: Forward and reverse gene mutation, body fluid assay, Assay Code: BFUT, Evaluation Type: Evaluation A (Pre-1980)) of the same compound?
A: The mutagenic call was “no conclusion”.

Q: What about the mutagenic call (Species/Cell Type: Salmonella typhimurium, Assay Type: Forward and reverse gene mutation, host-mediated assay, Assay Code: HMA+, Evaluation Type: Evaluation A (Pre-1980)) of the same compound?
A: The mutagenic call was “active; positive”.

Q: O=C(O)C1CCCCN1 (centres undefined) was tested. Which mutagenic call (Species/Cell Type: Salmonella typhimurium, Assay Type: Forward and reverse gene mutation, host-mediated assay, Assay Code: HMA-, Evaluation Type: Evaluation A (Pre-1980)) did it give?
A: The mutagenic call was “inactive; negative”.

Q: For CC(C)(C#N)Nc1nc(Cl)nc(NC2CC2)n1, which mutagenic call (Species/Cell Type: Zea mays (corn), Assay Type: Gene mutation, Assay Code: ZEM-, Evaluation Type: Evaluation A (Pre-1980)) is on record?
A: The mutagenic call was “inactive; negative”.

Q: Which results are given for CN(C)N=O?
A: mutagenic call (Species/Cell Type: Arabidopsis species, Assay Type: Gene mutation, Assay Code: ARM+D, Dose Response: With dose response, Evaluation Type: Evaluation A (Pre-1980)): active; positive; mutagenic call (Species/Cell Type: Chinese hamster lung (V79) cells, Assay Type: Forward gene mutation at the HPRT or ouabain locus, Assay Code: V79+, Evaluation Type: Evaluation A (Pre-1980)): active; positive; mutagenic call (Species/Cell Type: Chinese hamster ovary (CHO) cells, Assay Type: Forward gene mutation at the HPRT locus, Assay Code: CHO+*, Activation: With metabolic activation, Evaluation Type: Evaluation B (Post-1980)): active; positive; mutagenic call (Species/Cell Type: Chinese hamster ovary (CHO) cells, Assay Type: Forward gene mutation at the HPRT locus, Assay Code: CHO+D, Dose Response: With dose response, Evaluation Type: Evaluation A (Pre-1980)): active; positive; mutagenic call [6]: active; positive; mutagenic call (Species/Cell Type: Drosophila melanogaster, Sex: Male, Assay Type: Heritable translocation test, chromosome aberrations, Assay Code: DHT+, Evaluation Type: Evaluation A (Pre-1980)): active; positive; mutagenic call (Species/Cell Type: Escherichia coli WP2, Assay Type: Tryptophan reverse gene mutation, Assay Code: WP2+*, Activation: With metabolic activation, Evaluation Type: Evaluation A (Pre-1980)): active; positive; mutagenic call (Species/Cell Type: Escherichia coli WP2 UVRA, Assay Type: Tryptophan reverse gene mutation, Assay Code: WPU+*, Activation: With metabolic activation, Evaluation Type: Evaluation A (Pre-1980)): active; positive; mutagenic call (Species/Cell Type: Escherichia coli polA (W3110 vs P3478), Assay Type: Rec-assay, DNA effects (bacterial DNA repair), Assay Code: RE2+, Evaluation Type: Evaluation A (Pre-1980)): active; positive; mutagenic call (Species/Cell Type: Escherichia coli polA (W3119 vs P3478), Assay Type: Rec-assay, DNA effects (bacterial DNA repair), Assay Code: RE1T, Evaluation Type: Evaluation A (Pre-1980)): no conclusion; mutagenic call (Species/Cell Type: Fischer rat embryo (RLV/1706) cells, Assay Type: Cell transformation, viral enhanced, Assay Code: CTRT, Evaluation Type: Evaluation A (Pre-1980)): no conclusion; mutagenic call (Species/Cell Type: Human diploid fibroblasts, Assay Type: Unscheduled DNA synthesis (UDS) in vitro, DNA effects, Assay Code: UDH+D, Dose Response: With dose response, Evaluation Type: Evaluation A (Pre-1980)): active; positive; mutagenic call (Species/Cell Type: Human lymphocytes, Assay Type: Sister-chromatid exchange (SCE) in vitro, Assay Code: SCL+D*, Activation: With metabolic activation, Dose Response: With dose response, Evaluation Type: Evaluation B (Post-1980)): active; positive; mutagenic call (Species/Cell Type: Human, Assay Type: Sister-chromatid exchange (SCE) in vitro, Assay Code: SC1+D*, Activation: With metabolic activation, Dose Response: With dose response, Evaluation Type: Evaluation B (Post-1980)): active; positive; mutagenic call (Species/Cell Type: Mammalian germ cells, Sex: Male, Assay Type: Chromosome aberrations in vivo, Assay Code: CY9-, Evaluation Type: Evaluation A (Pre-1980)): inactive; negative; mutagenic call (Species/Cell Type: Mammalian polychromatic erythrocytes, Assay Type: Micronucleus test, chromosome aberrations, Assay Code: MNT+, Evaluation Type: Evaluation A (Pre-1980)): active; positive; mutagenic call (Species/Cell Type: Mouse germ cells, Sex: Male, Assay Type: Unscheduled DNA synthesis (UDS) in vivo, DNA effects, Assay Code: UDT-, Evaluation Type: Evaluation A (Pre-1980)): inactive; negative; mutagenic call (Species/Cell Type: Mouse lymphoma (L5178Y) cells, Assay Type: Forward gene mutation at the thymidine kinase (TK) locus, chromosome aberrations, Assay Code: L51+*, Activation: With metabolic activation, Evaluation Type: Evaluation A (Pre-1980)): active; positive; mutagenic call [2]: no conclusion; mutagenic call [3]: inactive; negative; mutagenic call (Species/Cell Type: Neurospora crassa, Assay Type: Forward gene mutation, Assay Code: NEF+*, Activation: With metabolic activation, Evaluation Type: Evaluation A (Pre-1980)): active; positive; mutagenic call [7]: active; positive; mutagenic call (Species/Cell Type: Nonhuman, Assay Type: Chromosome aberrations in vitro, Assay Code: CY&+D*, Activation: With metabolic activation, Dose Response: With dose response, Evaluation Type: Evaluation A (Pre-1980)): active; positive; call [8]: active; positive; mutagenic call (Species/Cell Type: Nonhuman, Assay Type: Sister-chromatid exchange (SCE) in vitro, Assay Code: SC2+D, Dose Response: With dose response, Evaluation Type: Evaluation A (Pre-1980)): active; positive; mutagenic call (Species/Cell Type: Nonhuman, Assay Type: Sister-chromatid exchange (SCE) in vivo, Assay Code: SC3+D, Dose Response: With dose response, Evaluation Type: Evaluation A (Pre-1980)): active; positive; mutagenic call (Species/Cell Type: Rat primary hepatocytes, Assay Type: Unscheduled DNA synthesis (UDS) in vitro, DNA effects, Assay Code: UDP+, Evaluation Type: Evaluation A (Pre-1980)): active; positive; mutagenic call (Species/Cell Type: Rodents, Sex: Male, Assay Type: Dominant lethal test, Assay Code: DLTT, Evaluation Type: Evaluation A (Pre-1980)): no conclusion; mutagenic call (Species/Cell Type: Saccharomyces cerevisiae, Assay Type: Forward gene mutation, Assay Code: YEF+*, Activation: With metabolic activation, Evaluation Type: Evaluation A (Pre-1980)): active; positive; mutagenic call (Species/Cell Type: Saccharomyces cerevisiae, Assay Type: Mitotic recombination or gene conversion, Assay Code: YEC+*, Activation: With metabolic activation, Evaluation Type: Evaluation A (Pre-1980)): active; positive; mutagenic call (Species/Cell Type: Saccharomyces cerevisiae, Assay Type: Mitotic recombination or gene conversion, Assay Code: YEH+, Evaluation Type: Evaluation A (Pre-1980)): active; positive; mutagenic call (Species/Cell Type: Salmonella typhimurium (one or more of the five standard strains: TA98, TA100, TA1535, TA1537, and TA1538), Assay Type: Histidine reverse gene mutation, Ames assay, Assay Code: SAL+*, Activation: With metabolic activation, Evaluation Type: Evaluation A (Pre-1980)): active; positive; mutagenic call (Species/Cell Type: Salmonella typhimurium, Escherichia coli, Neurospora crassa, Saccharomyces cerevisiae, Chinese hamster ovary (CHO) and l, Assay Type: Forward and reverse gene mutation, chromosome aberrations, mitotic recombination and gene conversion, DNA effects, host-, Assay Code: HM4+, Evaluation Type: Evaluation A (Pre-1980)): active; positive; mutagenic call (Species/Cell Type: Salmonella typhimurium, Assay Type: Forward and reverse gene mutation, body fluid assay, Assay Code: BFU+, Evaluation Type: Evaluation A (Pre-1980)): active; positive; mutagenic call (Species/Cell Type: Schizosaccharomyces pombe, Assay Type: Forward gene mutation, Assay Code: YEY+*, Activation: With metabolic activation, Evaluation Type: Evaluation A (Pre-1980)): active; positive; mutagenic call (Species/Cell Type: Syrian hamster embryo (SHE) cells, Assay Type: Cell transformation, clonal assay, Assay Code: CTCT, Evaluation Type: Evaluation A (Pre-1980)): no conclusion

Q: With CC1=C(/C=C/C(C)=C/C=C/C(C)=C/COc2ccccc2)C(C)(C)CCC1 as the compound, how does the mutagenic call (Species/Cell Type: Human, Assay Type: Sister-chromatid exchange (SCE) in vitro, Assay Code: SC1+D, Dose Response: With dose response, Evaluation Type: Evaluation B (Post-1980)) read?
A: The mutagenic call was “active; positive”.

Q: How did the mutagenic call (Species/Cell Type: Saccharomyces cerevisiae, Assay Type: Mitotic recombination or gene conversion, Assay Code: YEH-, Evaluation Type: Evaluation A (Pre-1980)) turn out when NC[C@@H]1CC[C@@H](N)[C@@H](O[C@H]2[C@H](O)[C@@H](O[C@H]3O[C@H](CO)[C@@H](O)[C@H](N)[C@H]3O)[C@H](N)C[C@@H]2N)O1 was run?
A: The mutagenic call was “inactive; negative”.

Q: [O-][Cl+]O was tested. Which mutagenic call [9] did it give?
A: The mutagenic call was “no conclusion”.

Q: C#Cc1cn([C@H]2C[C@H](O)[C@@H](CO)O2)c(=O)[nH]c1=O was tested. Which mutagenic call (Species/Cell Type: Human lymphocytes, Assay Type: Sister-chromatid exchange (SCE) in vitro, Assay Code: SCL+, Evaluation Type: Evaluation B (Post-1980)) did it give?
A: Its mutagenic call is “active; positive”.

Q: And the mutagenic call [1]?
A: The mutagenic call was “active; positive”.

Q: With [Cl][Ti]([Cl])[Cl] as the compound, how does the mutagenic call (Species/Cell Type: Nonhuman, Assay Type: Sister-chromatid exchange (SCE) in vitro, Assay Code: SC2-, Evaluation Type: Evaluation B (Post-1980)) read?
A: Its mutagenic call is “inactive; negative”.

Q: With BrCC1CO1 (centres undefined) as the compound, how does the mutagenic call [7] read?
A: The mutagenic call was “active; positive”.

Q: Which mutagenic call (Species/Cell Type: Drosophila melanogaster, Assay Type: Aneuploidy, partial sex chromosome loss, chromosome aberrations, Assay Code: DAPT, Evaluation Type: Evaluation A (Pre-1980)) does the source give for O=NN1CCC(Cl)C(Cl)C1 (centres undefined) here?
A: Its mutagenic call is “no conclusion”.

Q: And the mutagenic call (Species/Cell Type: Drosophila melanogaster, Assay Type: Aneuploidy, whole sex chromosome loss, chromosome aberrations, Assay Code: DACT, Evaluation Type: Evaluation A (Pre-1980))?
A: Its mutagenic call is “no conclusion”.

Q: What about the mutagenic call [6] of the same compound?
A: The mutagenic call was “active; positive”.

Q: For Clc1cc2c(cc1Cl)Oc1cc(Cl)c(Cl)cc1O2, which mutagenic call [9] is on record?
A: The mutagenic call was “no conclusion”.

Q: What about the call [8] of the same compound?
A: Its call is “active; positive”.

Q: And the mutagenic call [4]?
A: Its mutagenic call is “no conclusion”.

Q: And the mutagenic call [5]?
A: The mutagenic call was “inactive; negative”.
